Results: patent US11198678B1, “Plakortinic acids A and B: cytotoxic cycloperoxides with a unique bicyclo[4.2.0]octene unit from sponges of the genera Plakortis and Xestospongia” (University of Puerto Rico, priority 2016, dated 2021)

Tests used:
A2058 melanoma cells = assay: MTS cell viability (cytotoxicity) assay, A2058 melanoma cells; assay type: cell-based, human; conditions: 48 h treatment
Experimental: (§1) DU-145 human prostate cancer and A2058 melanoma cell lines were obtained from ATCC. These cells were cultured in RPMI-1640 or DMEM medium containing 10% fetal bovine serum (FBS), 100 units/mL penicillin, and 100 μg/mL streptomycin. All cells were maintained in a 5% CO2 atmosphere at 37° C. To determine the viability of the cells, Promega CellTiter 96 aqueous nonradioactive cell proliferation assays (MTS) were performed as described by the supplier (Promega; Madison, Wis.). Briefly, cells (5000/well) were seeded in 96-well plates and incubated overnight at 37° C. in 5% CO2. Cells were treated for 48 h with each compound. The concentration used was 10 μM. Dimethyl sulfoxide (DMSO) was used as the vehicle control. IC50 values of compounds were determined in a dose-dependent manner (0.1, 0.5, 1, 5, 10, 20, and 50 μM). Cell viability was determined by tetrazolium conversion to its formazan dye, and absorbance of formazan was measured at 490 nm using an automated ELISA plate reader. The production of formazan dye was directly proportional to the number of living cells. Each experiment was done in quadruplicate in the absence of a positive control.

[1] = test system: DU-145 human prostate cancer cells; assay: MTS cell viability (cytotoxicity) assay, DU-145 prostate cancer cells; assay type: cell-based; conditions: 48 h treatment
Experimental: as §1

Substance: plakortinic acid B methyl ester [compound 4]
- IC50 (A2058 melanoma cells): 4.7 µM
- IC50 [1]: 5.9 µM

Substance: plakortinic acid A [compound 2]
- IC50 (A2058 melanoma cells): 0.3 µM
- IC50 [1]: 0.5 µM
